Measured values: PubChem BioAssay AID192 (DTP/NCI, 2004)
“And” between values parts separate entries of the source, which are not always exact repeats. Equal entries are not always repeated. Inconclusive results and toxic doses are left out.

System: BDF1 mice, B16 melanoma ip, median survival T/C
Experiment: NCI In Vivo Anticancer Drug Screen. Data for tumor model B16 Melanoma (intraperitoneal) in B6D2F1 (BDF1) mice
Settings: endpoint: median survival time, higher = longer survival
In short: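 Survival or tumor size is measured after treatment of tumor-bearing mice and normalised to the vehicle-treated control group.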

[1] = dose: 5.0 mg/kg/injection, schedule: Q01DX009 (ip), vehicle: saline with Tween-80
[2] = dose: 10.0 mg/kg/injection, schedule: Q01DX009 (ip), vehicle: saline with Tween-80
[3] = dose: 12.5 mg/kg/injection, schedule: Q01DX009 (ip), vehicle: Klucel (hydroxypropylcellulose) (HPC)
[4] = dose: 25.0 mg/kg/injection, schedule: Q01DX009 (ip), vehicle: Klucel (hydroxypropylcellulose) (HPC)
[5] = dose: 50.0 mg/kg/injection, schedule: Q01DX009 (ip), vehicle: Klucel (hydroxypropylcellulose) (HPC)
[6] = dose: 100.0 mg/kg/injection, schedule: Q04DX003 (ip), vehicle: saline
[7] = dose: 100.0 mg/kg/injection, schedule: Q01DX009 (ip), vehicle: Klucel (hydroxypropylcellulose) (HPC)
[8] = dose: 200.0 mg/kg/injection, schedule: Q01DX009 (ip), vehicle: Klucel (hydroxypropylcellulose) (HPC)
[9] = dose: 6.25 mg/kg/injection, schedule: Q01DX009 (ip), vehicle: saline with Tween-80
[10] = dose: 12.5 mg/kg/injection, schedule: Q01DX009 (ip), vehicle: saline with Tween-80
[11] = dose: 25.0 mg/kg/injection, schedule: Q01DX009 (ip), vehicle: saline with Tween-80
[12] = dose: 50.0 mg/kg/injection, schedule: Q01DX009 (ip), vehicle: saline with Tween-80
[13] = dose: 100.0 mg/kg/injection, schedule: Q01DX009 (ip), vehicle: saline with Tween-80
[14] = dose: 200.0 mg/kg/injection, schedule: Q01DX009 (ip), vehicle: saline with Tween-80
[15] = dose: 400.0 mg/kg/injection, schedule: Q01DX009 (ip), vehicle: Klucel (hydroxypropylcellulose) (HPC)
[16] = dose: 12.5 mg/kg/injection, schedule: Q01DX009 (ip), vehicle: saline
[17] = dose: 25.0 mg/kg/injection, schedule: Q01DX009 (ip), vehicle: saline
[18] = dose: 50.0 mg/kg/injection, schedule: Q01DX009 (ip), vehicle: saline

O=C1C=C(N2CC2)c2ccccc2C1=O
T/C [1]: 105 % of control | T/C [2]: 100 % of control

NC(C/[N+]([O-])=N/O)C(=O)O (stereo not drawn)
T/C (dose: 15.6 mg/kg/injection, schedule: Q01DX009 (ip), vehicle: saline): 97 % of control | T/C (dose: 15.6 mg/kg/injection, schedule: Q01DX009 (ip), vehicle: water): 105 % of control | T/C (dose: 15.6 mg/kg/injection, schedule: Q04DX003 (ip), vehicle: saline): 100 % of control | T/C (dose: 15.6 mg/kg/injection, schedule: Q04DX003 (ip), vehicle: water): 102 % of control | T/C (dose: 16.0 mg/kg/injection, schedule: Q01DX009 (ip), vehicle: saline): 117 % of control | T/C (dose: 31.3 mg/kg/injection, schedule: Q01DX009 (ip), vehicle: saline): 102 % of control and 105 % of control | T/C (dose: 31.3 mg/kg/injection, schedule: Q01DX009 (ip), vehicle: water): 108 % of control | T/C (dose: 31.3 mg/kg/injection, schedule: Q04DX003 (ip), vehicle: saline): 97 % of control | T/C (dose: 31.3 mg/kg/injection, schedule: Q04DX003 (ip), vehicle: water): 97 % of control | T/C (dose: 62.5 mg/kg/injection, schedule: Q01DX009 (ip), vehicle: saline): 111 % of control | T/C (dose: 62.5 mg/kg/injection, schedule: Q01DX009 (ip), vehicle: water): 111 % of control | T/C (dose: 62.5 mg/kg/injection, schedule: Q04DX003 (ip), vehicle: saline): 100 % of control and 95 % of control | T/C (dose: 62.5 mg/kg/injection, schedule: Q04DX003 (ip), vehicle: water): 108 % of control | T/C (dose: 100.0 mg/kg/injection, schedule: Q04DX003 (ip), vehicle: saline with Tween-80): 100 % of control | T/C (dose: 125.0 mg/kg/injection, schedule: Q04DX003 (ip), vehicle: saline): 97 % of control and 111 % of control | T/C (dose: 125.0 mg/kg/injection, schedule: Q04DX003 (ip), vehicle: water): 111 % of control | T/C (dose: 200.0 mg/kg/injection, schedule: Q04DX003 (ip), vehicle: saline with Tween-80): 100 % of control | T/C (dose: 250.0 mg/kg/injection, schedule: Q04DX003 (ip), vehicle: saline): 100 % of control and 109 % of control | T/C (dose: 250.0 mg/kg/injection, schedule: Q04DX003 (ip), vehicle: water): 111 % of control | T/C (dose: 400.0 mg/kg/injection, schedule: Q04DX003 (ip), vehicle: saline with Tween-80): 106 % of control | T/C (dose: 500.0 mg/kg/injection, schedule: Q04DX003 (ip), vehicle: saline): 107 % of control | T/C (dose: 500.0 mg/kg/injection, schedule: Q04DX003 (ip), vehicle: water): 97 % of control

CCOc1ccc(N2C(=O)CSC2=S)cc1
T/C [3]: 103 % of control | T/C [4]: 91 % of control | T/C [5]: 95 % of control

O=[N+]([O-])c1cc([N+](=O)[O-])cc(S(=O)(=O)O)c1
T/C (dose: 25.0 mg/kg/injection, schedule: Q04DX003 (ip), vehicle: saline): 108 % of control | T/C (dose: 50.0 mg/kg/injection, schedule: Q04DX003 (ip), vehicle: saline): 97 % of control | T/C [6]: 87 % of control

C[C@H]1C[C@@H]2[C@H]([C@@H](O)C[C@@]3(C)[C@H]2CC[C@]3(O)C(=O)CO)[C@@]2(C)C=CC(=O)C=C12
T/C (dose: 6.25 mg/kg/injection, schedule: Q01DX009 (ip), vehicle: Klucel (hydroxypropylcellulose) (HPC)): 115 % of control | T/C [3]: 115 % of control | T/C [4]: 117 % of control | T/C [7]: 116 % of control | T/C [8]: 112 % of control

CCCCCC[N+](CCCCCC)(CCCCCC)CCCCCC
T/C (dose: 0.75 mg/kg/injection, schedule: Q01DX009 (ip), vehicle: Klucel (hydroxypropylcellulose) (HPC)): 88 % of control | T/C (dose: 1.5 mg/kg/injection, schedule: Q01DX009 (ip), vehicle: Klucel (hydroxypropylcellulose) (HPC)): 90 % of control

CN=S(=O)(OCCCCCOS(=O)(=NC)c1ccc(C)cc1)c1ccc(C)cc1 (stereo not drawn)
T/C [9]: 101 % of control | T/C [10]: 103 % of control | T/C [11]: 99 % of control | T/C [12]: 102 % of control | T/C [13]: 101 % of control | T/C [14]: 106 % of control

CC(c1ccccc1)N1C(=O)CSC1=S (stereo not drawn)
T/C [11]: 100 % of control | T/C [12]: 94 % of control | T/C [13]: 103 % of control | T/C [14]: 101 % of control

N#[N+]c1c(O)cc(S(=O)(=O)O)c2ccccc12
T/C [6]: 95 % of control | T/C (dose: 200.0 mg/kg/injection, schedule: Q04DX003 (ip), vehicle: saline): 93 % of control | T/C (dose: 400.0 mg/kg/injection, schedule: Q04DX003 (ip), vehicle: saline): 90 % of control

COc1cccc2c1C(=O)c1c(O)c3c(c(O)c1C2=O)C[C@H](O)C[C@@H]3OC1CC(N)C(O)C(C)O1 (stereo partly drawn)
T/C (dose: 12.5 mg/kg/injection, schedule: Q01DX001 (ip), vehicle: water): 169 % of control | T/C (dose: 50.0 mg/kg/injection, schedule: Q01DX001 (ip), vehicle: water): 110 % of control and 169 % of control and 267 % of control | T/C (dose: 100.0 mg/kg/injection, schedule: Q01DX001 (ip), vehicle: water): 110 % of control

OC1(C#CC2(O)c3ccccc3-c3ccccc32)c2ccccc2-c2ccccc21
T/C [7]: 122 % of control | T/C [8]: 97 % of control | T/C [15]: 94 % of control

CCOc1ccccc1NC(=O)c1cccc(C(=O)Nc2ccccc2OCC)c1
T/C [7]: 105 % of control | T/C [8]: 94 % of control | T/C [15]: 94 % of control

COc1ccc(OC)c(/C=C/c2ccnc3ccccc23)c1
T/C (dose: 50.0 mg/kg/injection, schedule: Q01DX009 (ip), vehicle: saline sonified): 113 % of control | T/C (dose: 100.0 mg/kg/injection, schedule: Q01DX009 (ip), vehicle: saline sonified): 107 % of control | T/C (dose: 200.0 mg/kg/injection, schedule: Q01DX009 (ip), vehicle: saline sonified): 113 % of control

CC(C)C(=O)OCC1OC(n2cnc3c(=S)nc(N)[nH]c32)C(OC(=O)C(C)C)C1OC(=O)C(C)C (stereo not drawn)
T/C (dose: 3.13 mg/kg/injection, schedule: Q01DX009 (ip), vehicle: saline with Tween-80): 114 % of control | T/C [9]: 108 % of control | T/C [10]: 110 % of control

CC12CCC(O)CC1CCC1C2CCC2(C)C(C3=CC(=O)OC3)CCC12O (stereo not drawn)
T/C (dose: 2.0 mg/kg/injection, schedule: Q01DX009 (ip), vehicle: Klucel (hydroxypropylcellulose) (HPC)): 105 % of control | T/C (dose: 4.0 mg/kg/injection, schedule: Q01DX009 (ip), vehicle: Klucel (hydroxypropylcellulose) (HPC)): 96 % of control | T/C (dose: 8.0 mg/kg/injection, schedule: Q01DX009 (ip), vehicle: Klucel (hydroxypropylcellulose) (HPC)): 98 % of control

C=C(C)C(=O)OCC1CO1 (stereo not drawn)
T/C [5]: 102 % of control | T/C [7]: 100 % of control | T/C [8]: 109 % of control

Cc1nc(C(=O)O)c(C)c(=O)[nH]1
T/C (dose: 1.56 mg/kg/injection, schedule: Q01DX009 (ip), vehicle: water): 100 % of control | T/C (dose: 3.13 mg/kg/injection, schedule: Q01DX009 (ip), vehicle: water): 96 % of control | T/C (dose: 6.25 mg/kg/injection, schedule: Q01DX009 (ip), vehicle: water): 105 % of control | T/C (dose: 12.5 mg/kg/injection, schedule: Q01DX009 (ip), vehicle: water): 100 % of control

CCCCNc1cc(Nc2ccc(Br)cc2)nc(N)n1
T/C [12]: 95 % of control | T/C [13]: 91 % of control

O=C/C(Cl)=C(/Cl)C(=O)O
T/C (dose: 2.5 mg/kg/injection, schedule: Q01DX009 (ip), vehicle: saline with Tween-80): 99 % of control | T/C [1]: 87 % of control | T/C [2]: 102 % of control | T/C (dose: 20.0 mg/kg/injection, schedule: Q01DX009 (ip), vehicle: saline with Tween-80): 106 % of control

COc1ccc(Oc2cc(CC3c4cc(OC)c(OC)cc4CCN3C)c([N+](=O)[O-])cc2OC)cc1OC (stereo not drawn)
T/C [16]: 100 % of control | T/C [17]: 100 % of control | T/C [18]: 98 % of control

OC12CCC[N+]1(Cc1ccccc1)CCC2 (stereo not drawn)
T/C [16]: 109 % of control | T/C [17]: 109 % of control | T/C [18]: 102 % of control

C#CC(C)(O)c1ccccc1 (stereo not drawn)
T/C [5]: 100 % of control | T/C [7]: 100 % of control | T/C [8]: 103 % of control

CCOC(=O)CC(C)(N)NC(N)=O (stereo not drawn)
T/C [13]: 92 % of control | T/C [14]: 95 % of control | T/C (dose: 400.0 mg/kg/injection, schedule: Q01DX009 (ip), vehicle: saline with Tween-80): 90 % of control
